Source: paper PMC7338124, “Characterization of neuraminidase inhibitor-resistant influenza virus isolates from immunocompromised patients in the Republic of Korea” (Virology Journal, 2020)

Columns and labels:
[1] = system: 2018–2019 isolates A(H3N2) neuraminidase, Wild; type: biochemical, influenza A(H3N2) virus
[2] = system: 2018–2019 isolates A(H1N1)pdm09 neuraminidase, Wild; type: biochemical, influenza A(H1N1)pdm09 virus
[3] = system: 2018–2019 isolates B neuraminidase, Wild; type: biochemical, influenza B virus
[4] = system: A/Korea/S0002/2019 A(H1N1)pdm09 neuraminidase, Variant (H275Y); type: biochemical, influenza A(H1N1)pdm09 virus
[5] = system: A/Korea/S0003/2019 A(H1N1)pdm09 neuraminidase, Variant (H275Y); type: biochemical, influenza A(H1N1)pdm09 virus

Which results are given for `CCOC(=O)C1=C[C@@H](OC(CC)CC)[C@H](NC(C)=O)[C@@H](N)C1` [Oseltamivir]?
NAI resistance (IC50 fold change) [1]: 0.1–0.2 fold; NAI resistance (IC50 fold change) [2]: 0.1–1.2 fold

Which “NAI resistance (IC50 fold change)” value [1] does the source give for `CCC(CC)[C@H](NC(C)=O)[C@@H]1[C@H](O)[C@@H](C(=O)O)C[C@H]1N=C(N)N` [Peramivir] here?
The value was 0.2–0.3 fold.

And the “NAI resistance (IC50 fold change)” value [3]?
Its value is 0.3–0.4 fold.

And the “NAI resistance (IC50 fold change)” value [2]?
Its value is 0.1 fold.

For `CC(=O)N[C@H]1[C@H]([C@H](O)[C@H](O)CO)OC(C(=O)O)=C[C@@H]1N=C(N)N` [Zanamivir], which “NAI resistance (IC50 fold change)” value [1] is on record?
Its value is 0.4–0.8 fold.

And the “NAI resistance (IC50 fold change)” value [3]?
Its value is 0.7–1.6 fold.

What about the “NAI resistance (IC50 fold change)” value [4] of the same molecule?
The value was “NI 0.44 fold”.

And the “Susceptibility to NAI (in words)” value [4]?
The value was “normally susceptible”.

And the “NAI resistance (IC50 fold change)” value [2]?
Its value is 0.3–0.7 fold.

What about the “NAI resistance (IC50 fold change)” value [5] of the same molecule?
The value was “NI 2.56 fold”.

What about the “Susceptibility to NAI (in words)” value [5] of the same molecule?
The value was “normally susceptible”.
